Paper PMC10928576, “Cpne7 deficiency induces cellular senescence and premature aging of dental pulp” (Aging Cell, 2023)

Experiments:
hDPCs [1] = test: Senescence β-galactosidase (SA-β gal) staining of H2O2-treated hDPCs; format: cell-based, human; details: hDPCs, 1 mM H2O2, 30 min
Procedure: The hDPCs were obtained from the Seoul National University Dental Hospital, and the experimental protocol was accepted by the Institutional Review Board of the Seoul National University (S‐D20140007). Informed consent was obtained from patients. Human DPCs were isolated and used in an in vitro experiment as described previously (Jung et al., [2011]). Human DPCs were cultured in minimum essential medium α (Gibco BRL, 12571063) supplemented with 10% heat‐inactivated fetal bovine serum (FBS; Gibco BRL, 16000044) and antibiotic‐antimycotic (Gibco BRL, 15240062) at 37°C in an atmosphere with 5% CO2. The cells were then treated with recombinant CPNE7 protein (rCPNE7, 100 ng/mL; Origene, TP306428) or CPNE7‐derived peptide (CPNE7‐DP, 10 μg/mL). After oxidative stress‐induced DNA damage using Hydrogen Peroxide Solution (H2O2; Merck, H1009) rCPNE7 was treated after replacement with a new culture medium (α‐MEM).
Human DPCs were fixated with Fixative Solution (Cell Signaling Technology, #9860) at room temperature for 15 min. Rinsed twice with PBS, the cells were then stained with β‐Galactosidase Staining Solution (Cell Signaling Technology, #9860) at 37°C overnight in a dry incubator (no CO2). Cells were observed using light microscopy (Primovert, Zeiss, Germany) (n = 3, each group).

hDPCs [2] = test: γ-H2AX immunofluorescence in hDPCs; format: cell-based, human; details: 1 mM H2O2, vs control
Procedure: Human DPCs and tissue sections were treated with phosphate‐buffered saline (PBS) and 0.5% Triton X‐100 for permeabilization. After washing and blocking, cells and tissue samples were incubated overnight at 4°C with γ‐H2AX (1:100, Cell Signaling Technology, #9718) and CPNE7 (1:100) in blocking buffer (PBS and 2% bovine serum albumin). Subsequently, FITC‐conjugated anti‐rabbit secondary antibody (1:500) or Cy3‐conjugated anti‐rabbit (1:500) was applied. Cells were visualized using confocal microscopy (LSM980, Zeiss, Germany). The chromosomal DNA in the nucleus was stained with 4′,6‐diamidino‐2‐phenylindole (DAPI). The microtubules were detected using α‐TUBULIN antibodies (1:1000; Santa Cruz), and F‐ACTIN was stained with Alexa Fluor 488 or rhodamine‐conjugated phalloidin (Invitrogen). Flag‐tagged rCPNE7 was detected using Flag‐antibodies (1:500; Sigma–Aldrich), and TAU was detected by TAU antibodies (1:100; CUSABIO). Immunofluorescence staining of TAU, F‐ACTIN, and α‐TUBULIN was analyzed using the IMARIS cell imaging software (Bitplane) (n = 3, each group).

hDPCs [3] = test: γ-H2AX / P21 western blot in H2O2-treated hDPCs; format: cell-based, human
Procedure: Cellular proteins (30 μg) were separated by 10% or 15% sodium dodecyl sulfate‐polyacrylamide gel electrophoresis (SDS‐PAGE) and transferred to polyvinylidene fluoride (PVDF) membranes. The PVDF membranes were blocked for 1 h with 5% nonfat dry milk in Tris‐buffered saline containing 0.1% Tween 20 (TBS‐T) and incubated overnight at 4°C with the primary antibody diluted in TBS‐T (1:5000). After washing, membranes were incubated for 1 h with the appropriate secondary antibodies. Labeled protein bands were detected under an enhanced chemiluminescence system (Amersham Biosciences/GE Healthcare). All reactions were performed in triplicate. Semi‐quantitative analyses were performed using Image J software (National Institute of Health, MD, USA) (n = 3, each group).

hDPCs [4] = test: Comet assay; format: cell-based, human; details: 1 mM H2O2
Procedure: Human DPCs were combined with Comet Agarose (Abcam, ab238544) at 1/10 ratio (v/v), mixed by pipetting, and immediately transferred onto the top of the Comer Agarose Base Layer Slide (Abcam, ab238544). Set horizontally, the slides were incubated at 4°C in the dark for 15 min, and placed in a small basin/container containing pre‐chilled Lysis Buffer (Abcam, ab238544). They were immersed in the buffer for 1 h at 4°C in the dark. After 1 h, aspiration of the Lysis Buffer from the container was done and replaced with a pre‐chilled Alkaline Solution (Abcam, ab238544), followed by electrophoresis chamber filled with the Alkaline Electrophoresis Solution. Voltage was applied to the chamber for 30 min at 1 volt/cm. The slides were then rinsed with pre‐chilled DI H2O and replaced with cold 70% Ethanol for 5 min. The slide was removed from the 70% Ethanol and allowed to air dry. Once the slide was completely dry, staining with Vista Green DNA Dye (Abcam, ab238544) was done at room temperature for 15 min. Cells were visualized using confocal microscopy (LSM980, Zeiss, Germany) (n = 3, each group).

hDPCs [5] = system: hDPCs
hDPCs [6] = details: 30 min or 1 h after H2O2 100 μM, 500 μM or 1 mM

OO [H2O2, hydrogen peroxide, reference compound]
SA-β gal positive signals (induction of senescence) (hDPCs [1]): began to deposit
expression of γ-H2AX (immunofluorescence) (hDPCs [2]): specifically detected in cellular nuclei
expressions of γ-H2AX and P21 (DNA damage and cell cycle arrest) (hDPCs [3]; 500 μM H2O2): upregulated
protein expression level of γ-H2AX (western blot) (hDPCs [3]; 1 mM and 2 mM H2O2): clearly detected
DNA fragmentation (comet assay) (hDPCs [4]): fragmented DNA visualized as a cell tail
cytotoxicity of oxidative stress (hDPCs [5]; 1 mM and 2 mM H2O2, after 48 h): severe cytotoxicity
cell death / survival rate (WST-8) (hDPCs [5]; H2O2 50 μM to 2 mM for 24 h): cell death occurred in a concentration‐dependent manner except for 50 μM
endogenous mRNA expression level of Cpne7 (hDPCs [6]): started to increase
